Data set [1] is described as follows: Water-solubility, stirred in water 24 h at 25 °C, HPLC quantification. Type of data set: physicochemical. As to the method:
The mixture was centrifuged at 100,000 g for 30 min at 25 °C. The concentration of test compounds was estimated on the basis of their peak areas using calibration curves prepared by HPLC analyses of authentic samples.

Data set [2] relates to KB human cancer cells. The data set can be described thus: MTT cytotoxicity assay in KB cells. It is filed as cell-based. The following applies: 24 h treatment. As to the method: (§1) The sensitivity of KB and MCF-7 cells to docetaxel or 4–6 was determined according to the previously reported method. Cells were diluted with culture medium to the seeding density (10^5 cells/mL), suspended in 96-well tissue culture plates (100 μL/well), preincubated at 37 °C for 4 h, and then treated for 24 h with docetaxel or 4–6 at various concentrations to obtain a dose–response curve for each compound. After incubation, 20 μL MTT solution (2.5 mg/mL) was added to each well and the plates were further incubated for 4 h. Absorbance at 570 nm was measured with a microplate reader model 450 (BIO-RAD). Dose-response curves were plotted on a semi-log scale as percentage of the cell numbers in control cultures not exposed to test compounds.
Background: Tetrazolium assays rely on reduction of a dye to a coloured formazan, in cell work by metabolically active cells.

Data set [3] has as its system MCF-7 human cancer cells. Briefly: MTT cytotoxicity assay in MCF-7 cells. Type of data set: cell-based. The conditions noted are these: for IC50 MCF-7 cells: 24 h treatment. As to the method: as §1
Data set [4] concerns KB human cancer cells. The data set can be described thus: Hydrolysis of prodrugs by KB cells, release of docetaxel (HPLC). The following applies: 5 μmol compound, 20 mg KB cells in RPMI 1640, 37 °C, 24 h. Type of data set: cell-based. As to the method: To a 5-mL vial containing RPMI 1640 medium (1 mL, Nissui Pharmaceutical Co. Ltd.) and KB cells (20 mg) was added 5 μmol of each compound. The mixture was incubated at 37 °C for 24 h. The cells and medium were separated by centrifugation at 10,000 g for 5 min. The cells were extracted with MeOH. MeOH extract was concentrated, and the residue was partitioned between H2O and CH2Cl2. The medium was extracted with CH2Cl2. The CH2Cl2 fractions were combined, concentrated, and analyzed by HPLC. The yield of docetaxel was calculated on the basis of the peak area from HPLC using a calibration curve provided by HPLC analyses of authentic docetaxel.

We go through three molecules from PMC6264731, “Chemo-Enzymatic Synthesis of Ester-Linked Docetaxel-Monosaccharide Conjugates as Water-Soluble Prodrugs” (Molecules, 2011).

In brackets after ≈: the same amount, converted by molar mass. Where two headings read alike, the source gives them in different places.

A word on the solubility: it is the concentration that dissolves in the medium under given conditions. A low value points to little dissolved substance. As to “7-propionyldocetaxel 3''-O-β-D-galactopyranoside [Compound 5]”, the solubility at 24 h in data set [1] is listed as 25.5 µM. For the same molecule, in data set [2], the “IC50 KB cells” value was 41 µg/mL. For the same molecule, in data set [3], the “IC50 MCF-7 cells” value came out at 28 µg/mL. In addition, in data set [4], the “Conversion to docetaxel (hydrolysis by KB cells)” value worked out at 45%.
Consider “7-propionyldocetaxel 3''-O-β-D-xylopyranoside [Compound 6]”, for which the solubility at 24 h in data set [1] turned out to be 20.2 µM. Besides, the “IC50 KB cells” value in data set [2] is 25 µg/mL. The “IC50 MCF-7 cells” value in data set [3] was 12 µg/mL. Besides, the “Conversion to docetaxel (hydrolysis by KB cells)” value in data set [4] is 76%.
Usually IC50 stands for the concentration needed to halve the response being measured. Low readings indicate greater potency, high ones weaker potency. With `CC(=O)O[C@@]12CO[C@@H]1C[C@H](O)[C@@]1(C)C(=O)[C@H](O)C3=C(C)[C@@H](OC(=O)[C@H](O)[C@@H](NC(=O)OC(C)(C)C)c4ccccc4)C[C@@](O)([C@@H](OC(=O)c4ccccc4)[C@H]21)C3(C)C` [Docetaxel], in data set [1] (relative to docetaxel), the “Fold (water-solubility relative to docetaxel)” value worked out at 1 fold. In data set [1] (thermodynamic from solid), this molecule had a solubility at 24 h of 0.5 µM (≈ 0.404 µg/mL). Further, the IC50 came to 12 µg/mL (≈ 14.9 µM) in data set [2] (Homo sapiens) and 5 µg/mL (≈ 6.19 µM) in data set [3] (Homo sapiens, MCF7, 24 h treatment).
